The nature of this test: Positive allosteric modulator pEC50 values and antagonist pIC50 values for each compound were then determined. […] Data analysis was carried out using a 4 parameter logistic nonlinear regression model with the XLFIT (IDBS) excel add-in10. 1-10 Examples 76-80 and 82-89 were tested in a slightly modified procedure. The points of modification and the alternate reagents, concentrations or equipment employed in these examples were: 1200 μg/ml hygromycin B; 2G418 not added; 3CELLBANKER 1; 410E6; 5 40 μl; 6 1 in 99; 7 20 μl; 8FDSS6000 (Hamamatsu Photonics); 9(480Ex, 540Em); 10Spotfire (TIBCO).As measured by the above in vitro assay, compound Examples 1 to 105 are positive allosteric modulators of mAChR M1 displaying the pEC50 values for positive allosteric modulation given in Table 2. The conditions noted are these: 0.5 h.
Take `COc1cc(Cn2cc(C(=O)NC3CCOC[C@@H]3O)c3nccc(C)c32)ccn1` (stereo partly specified): the EC50 – broadly, the concentration that produces a half-maximal response – worked out at 50.1 nM.

For the compound `O=C(NC1CCC(F)(F)C[C@H]1O)c1cn(Cc2ccc(F)cc2)c2cccnc12` (stereo partly specified), the EC50 was found to be 794 nM.

On to `COc1ccc(Cn2cc(C(=O)NC3CCOC[C@@H]3O)c3nccc(Cl)c32)cc1` (stereo partly specified), for which the EC50 was found to be 12.6 nM.

Turning to `Cc1ccnc2c(C(=O)NC3CCOC[C@@H]3O)cn(Cc3ccc(F)cc3)c12` (stereo partly specified), the EC50 is 15.8 nM.

With `COc1ccc(Cn2cc(C(=O)NC3CCOC[C@@H]3O)c3nccc(C)c32)cc1F` (stereo partly specified), the EC50 worked out at 12.6 nM.

On to `COc1ccc(Cn2cc(C(=O)NC3CCOC[C@@H]3O)c3nccc(C)c32)cc1` (stereo partly specified), for which the EC50 worked out at 10 nM.

These data come from ChEMBL document CHEMBL5725623, “4-azaindole derivatives” (2018).
